This is an account of results in patent publication US7022846B2, “Metabolites of prinomastat and their synthesis” (Agouron Pharmaceuticals, Inc., priority 2002, dated 2006).

One data set has as its target T1, hMATR (Homo sapiens, UniProt P09237).
T1 sequence (P09237 95-267): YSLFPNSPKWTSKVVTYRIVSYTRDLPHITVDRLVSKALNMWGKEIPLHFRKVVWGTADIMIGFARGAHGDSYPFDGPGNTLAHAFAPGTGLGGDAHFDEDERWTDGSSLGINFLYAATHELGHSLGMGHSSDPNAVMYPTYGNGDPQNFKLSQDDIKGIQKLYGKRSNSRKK
Description: Ki for MMP inhibition, hMATR. The format is biochemical. The source says: (§1) The present invention is further directed to methods of inhibiting metalloproteinase activity, for example in mammalian tissue, by administering metabolites of prinomastat, such as a compound of the formula 11 or 22, or a pharmaceutically acceptable prodrug, salt or solvate thereof. The activity of the inventive compounds as inhibitors of metalloproteinase activity, such as the activity of MMPs (including stromelysins, collagenases, gelatinases, and/or matrilysin) and/or TNF-[…] convertase, may be measured by any of the methods available to those skilled in the art, including in vivo and/or in vitro assays. Examples of suitable assays fro activity measurements include those described in Anal. Biochem., 147, 437 (1995), Anal. Biochem., 180, 110 (1989), FEBS, 96, 263 (1992) and European Patent Application No. 0 606 046.

For a further data set, the target named is T2, hGELA (Homo sapiens, UniProt P08253).
T2 sequence (P08253 110-660): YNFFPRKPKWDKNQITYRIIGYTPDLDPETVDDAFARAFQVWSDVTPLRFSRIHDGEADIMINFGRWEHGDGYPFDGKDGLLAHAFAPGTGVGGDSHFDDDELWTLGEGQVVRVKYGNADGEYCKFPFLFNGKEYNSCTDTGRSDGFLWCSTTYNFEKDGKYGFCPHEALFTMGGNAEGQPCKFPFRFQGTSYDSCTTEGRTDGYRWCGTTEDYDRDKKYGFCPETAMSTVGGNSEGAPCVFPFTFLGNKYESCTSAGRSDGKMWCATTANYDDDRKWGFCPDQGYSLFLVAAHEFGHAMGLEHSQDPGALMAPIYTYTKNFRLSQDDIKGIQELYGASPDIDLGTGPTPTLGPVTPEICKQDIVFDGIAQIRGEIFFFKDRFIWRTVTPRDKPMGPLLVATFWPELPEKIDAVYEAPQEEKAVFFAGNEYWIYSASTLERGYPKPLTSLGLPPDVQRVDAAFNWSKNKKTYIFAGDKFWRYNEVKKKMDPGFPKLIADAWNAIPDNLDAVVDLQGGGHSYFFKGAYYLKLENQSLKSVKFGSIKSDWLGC
Description: Ki for MMP inhibition, hGELA. The format is biochemical.
Description: as §1

The next data set has as its target hSLN (Homo sapiens, UniProt P08254). In words: Ki for MMP inhibition, hSLN. The format is biochemical.
Description: as §1

The target in another data set is hCOL3 (Homo sapiens, UniProt P45452). Description: Ki for MMP inhibition, hCOL3. The format is biochemical.
Description: as §1

The nature of data set [1]: Metabolic composition of human plasma after single oral dose of prinomastat (LC-MS/MS). The format is in vivo. The conditions noted are these: single 100 mg oral dose of prinomastat. How it is done: Five healthy male volunteers received a 100 mg oral dose of prinomastat tablets in a phase I, double-blind, ascending single dose study. Blood samples were drawn at pre-selected time points, and the plasma was separated by centrifugation and stored at −20° C.
The human plasma samples at 1.5, 4, 8 and 12 hours pooled from five male volunteers were selected for the analysis of metabolites by liquid chromatography tandem mass spectroscopy (LC-MS/MS). Samples were treated with three volumes of an AcN:MeOH mixture (2:1) to precipitate plasma proteins. Following centrifugation, protein pellets were separated and washed twice with two volumes of the same AcN:MeOH mixture. The combined supernatant was evaporated to dryness under vacuum using a SpeedVac™ (Savant Instrument, Holbrook, N.Y.), and the dried residue was reconstituted in 0.1% formic acid-acetonitrile (90:10), and analyzed by LC-MS/MS.
Two LC-MS/MS systems were used to analyze the plasma samples. […]
The relative peak heights of prinomastat and its metabolites in the LC-MS reconstructed ion chromatograms (RIC) were used to estimate the relative abundance of each component, which was expressed as percent of total prinomastat related compounds. […]
Human plasma pooled from five male volunteers was analyzed for metabolites at 1.5 hr, 4, 8 and 12 hours. […]

The target in a further data set is T3, hCOL1 (Homo sapiens, UniProt P03956).
T3 sequence (P03956 100-469): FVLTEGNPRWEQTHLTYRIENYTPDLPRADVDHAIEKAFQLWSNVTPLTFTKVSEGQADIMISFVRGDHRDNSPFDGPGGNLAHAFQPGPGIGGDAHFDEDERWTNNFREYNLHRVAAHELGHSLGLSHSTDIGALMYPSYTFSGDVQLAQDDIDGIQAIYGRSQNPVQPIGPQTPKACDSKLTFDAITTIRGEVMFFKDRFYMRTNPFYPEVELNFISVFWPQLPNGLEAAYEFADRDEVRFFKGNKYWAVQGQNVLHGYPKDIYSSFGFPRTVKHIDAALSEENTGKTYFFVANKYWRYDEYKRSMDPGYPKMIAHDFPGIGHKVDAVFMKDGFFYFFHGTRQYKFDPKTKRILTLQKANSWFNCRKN
In words: Ki for MMP inhibition, hCOL1. The format is biochemical.
Description: as §1

Chain of hSLN (P08254 100-477): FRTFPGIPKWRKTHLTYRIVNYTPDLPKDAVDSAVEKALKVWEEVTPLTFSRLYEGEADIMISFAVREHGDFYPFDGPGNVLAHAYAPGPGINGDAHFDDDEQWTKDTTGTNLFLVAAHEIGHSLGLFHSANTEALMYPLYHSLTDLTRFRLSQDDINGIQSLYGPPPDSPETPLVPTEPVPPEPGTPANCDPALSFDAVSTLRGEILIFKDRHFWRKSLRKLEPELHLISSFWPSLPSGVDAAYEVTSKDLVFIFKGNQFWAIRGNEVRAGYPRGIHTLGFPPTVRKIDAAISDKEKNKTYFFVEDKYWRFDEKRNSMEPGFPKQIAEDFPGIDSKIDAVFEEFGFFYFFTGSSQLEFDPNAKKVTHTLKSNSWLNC

Consider `CC1(C)SCCN(S(=O)(=O)c2ccc(Oc3cc[n+]([O-])cc3)cc2)[C@H]1C(=O)NO` [M6, (3S)-N-hydroxy-4-(4-((1-oxy-pyrid-4-yl)oxy)benzenesulfonyl)-2,2-dimethyl-tetrahydro-2H-1,4-thiazine-3-carboxamide], for which the Ki turned out to be 1140 nM on hMATR; 6.6 nM at hGELA; 5.1 nM on hSLN; 4 nM at hCOL3; 396 nM at hCOL1. Moreover, the “share of the total drug-related substance in human plasma” value in data set [1] (later time points) is reported as at most 50%.
For the molecule `CC1(C)SCCN(S(=O)(=O)c2ccc(Oc3ccncc3)cc2)[C@H]1C(=O)NO` [parent drug, (3S)-N-hydroxy-4-(4-(pyrid-4-yloxy)benzenesulfonyl)-2,2-dimethyl-tetrahydro-2H-1,4-thiazine-3-carboxamide, reference compound], the “relative abundance among circulating drug-related compounds in human plasma” value in data set [1] (early time points) was “major circulating compound”.

As usually defined, the Ki is a measure of affinity in units of concentration, obtained from inhibition or displacement. Lower therefore signals tighter binding.
